Assay results: the NIST ThermoML archive (doi:10.1016/j.jct.2012.11.032)
± gives the expanded uncertainty stated by the source.

Assay: xn = mol fraction of the nth substance listed
Conditions: 101 kPa, Liquid; for speed of sound: Sing-around technique in a fixed-path interferometer; for mass density: Vibrating tube method

CCCCCCCCCCCC[n+]1ccn(C)c1.[Cl-] [1-dodecyl-3-methylimidazolium chloride] + O
Conditions | mass density [kg/m3] | speed of sound [m/s]
298 K, x1 = 2.7e-05 | 997.065 ± 0.1 | –
298 K, x1 = 3e-05 | 997.081 ± 0.1 | –
298 K, x1 = 4.8e-05 | 997.081 ± 0.1 | –
298 K, x1 = 7.4e-05 | 997.07 ± 0.1 | –
298 K, x1 = 9.4e-05 | 997.061 ± 0.1 | –
298 K, x1 = 0.000109 | 997.064 ± 0.1 | –
298 K, x1 = 0.000129 | 997.078 ± 0.1 | –
298 K, x1 = 0.000145 | 997.058 ± 0.1 | –
298 K, x1 = 0.000163 | 997.076 ± 0.1 | –
298 K, x1 = 0.000181 | 997.056 ± 0.1 | –
298 K, x1 = 0.000208 | 997.055 ± 0.1 | –
298 K, x1 = 0.000234 | 997.049 ± 0.1 | –
298 K, x1 = 0.000248 | 997.059 ± 0.1 | –
298 K, x1 = 0.000273 | 997.045 ± 0.1 | –
298 K, x1 = 0.000286 | 997.042 ± 0.1 | –
298 K, x1 = 0.000302 | 997.023 ± 0.1 | –
298 K, x1 = 0.000319 | 997.039 ± 0.1 | –
298 K, x1 = 0.000341 | 997.023 ± 0.1 | –
298 K, x1 = 0.000384 | 997.011 ± 0.1 | –
298 K, x1 = 0.000407 | 996.995 ± 0.1 | –
298 K, x1 = 0.000428 | 996.98 ± 0.11 | –
298 K, x1 = 0.0428 | – | 1500.7 ± 1.2
303 K, x1 = 2.7e-05 | 995.678 ± 0.1 | –
303 K, x1 = 3e-05 | 995.688 ± 0.1 | –
303 K, x1 = 4.8e-05 | 995.688 ± 0.1 | –
303 K, x1 = 7.4e-05 | 995.68 ± 0.11 | –
303 K, x1 = 9.4e-05 | 995.666 ± 0.1 | –
303 K, x1 = 0.000109 | 995.667 ± 0.1 | –
303 K, x1 = 0.000129 | 995.679 ± 0.1 | –
303 K, x1 = 0.000145 | 995.66 ± 0.11 | –
303 K, x1 = 0.000163 | 995.674 ± 0.1 | –
303 K, x1 = 0.000181 | 995.656 ± 0.1 | –
303 K, x1 = 0.000208 | 995.653 ± 0.1 | –
303 K, x1 = 0.000234 | 995.647 ± 0.1 | –
303 K, x1 = 0.000248 | 995.65 ± 0.11 | –
303 K, x1 = 0.000273 | 995.635 ± 0.1 | –
303 K, x1 = 0.000286 | 995.632 ± 0.1 | –
303 K, x1 = 0.000302 | 995.606 ± 0.1 | –
303 K, x1 = 0.000319 | 995.625 ± 0.1 | –
303 K, x1 = 0.000341 | 995.608 ± 0.1 | –
303 K, x1 = 0.000384 | 995.594 ± 0.1 | –
303 K, x1 = 0.000407 | 995.571 ± 0.1 | –
303 K, x1 = 0.000428 | 995.568 ± 0.1 | –
303 K, x1 = 0.0027 | – | 1509.5 ± 1.2
303 K, x1 = 0.003 | – | 1509.5 ± 1.2
303 K, x1 = 0.0048 | – | 1509.8 ± 1.2
303 K, x1 = 0.0074 | – | 1510.1 ± 1.2
303 K, x1 = 0.0094 | – | 1510.4 ± 1.2
303 K, x1 = 0.0109 | – | 1510.6 ± 1.2
303 K, x1 = 0.0129 | – | 1510.8 ± 1.2
303 K, x1 = 0.0145 | – | 1511 ± 1.2
303 K, x1 = 0.0163 | – | 1511.2 ± 1.2
303 K, x1 = 0.0181 | – | 1511.4 ± 1.2
303 K, x1 = 0.0208 | – | 1511.8 ± 1.2
303 K, x1 = 0.0234 | – | 1512 ± 1.2
303 K, x1 = 0.0248 | – | 1512.1 ± 1.2
303 K, x1 = 0.0273 | – | 1512.3 ± 1.2
303 K, x1 = 0.0286 | – | 1512.3 ± 1.2
303 K, x1 = 0.0302 | – | 1512.4 ± 1.2
303 K, x1 = 0.0319 | – | 1512.5 ± 1.2
303 K, x1 = 0.0341 | – | 1512.6 ± 1.2
303 K, x1 = 0.0384 | – | 1512.5 ± 1.2
303 K, x1 = 0.0407 | – | 1512.7 ± 1.2
303 K, x1 = 0.0428 | – | 1512.7 ± 1.2
308 K, x1 = 2.7e-05 | 994.072 ± 0.1 | –
308 K, x1 = 3e-05 | 994.075 ± 0.1 | –
308 K, x1 = 4.8e-05 | 994.073 ± 0.1 | –
308 K, x1 = 7.4e-05 | 994.068 ± 0.1 | –
308 K, x1 = 9.4e-05 | 994.05 ± 0.11 | –
308 K, x1 = 0.000109 | 994.047 ± 0.1 | –
308 K, x1 = 0.000129 | 994.059 ± 0.1 | –
308 K, x1 = 0.000145 | 994.046 ± 0.1 | –
308 K, x1 = 0.000163 | 994.052 ± 0.1 | –
308 K, x1 = 0.000181 | 994.039 ± 0.1 | –
308 K, x1 = 0.000208 | 994.032 ± 0.1 | –
308 K, x1 = 0.000234 | 994.027 ± 0.1 | –
308 K, x1 = 0.000248 | 994.022 ± 0.1 | –
308 K, x1 = 0.000273 | 994.008 ± 0.1 | –
308 K, x1 = 0.000286 | 994.004 ± 0.1 | –
308 K, x1 = 0.000302 | 993.979 ± 0.1 | –
308 K, x1 = 0.000319 | 993.993 ± 0.1 | –
308 K, x1 = 0.000341 | 993.986 ± 0.1 | –
308 K, x1 = 0.000384 | 993.958 ± 0.1 | –
308 K, x1 = 0.000407 | 993.935 ± 0.1 | –
308 K, x1 = 0.000428 | 993.939 ± 0.1 | –
308 K, x1 = 0.0027 | – | 1520.1 ± 1.2
308 K, x1 = 0.003 | – | 1520.2 ± 1.2
308 K, x1 = 0.0048 | – | 1520.4 ± 1.2
308 K, x1 = 0.0074 | – | 1520.7 ± 1.2
308 K, x1 = 0.0094 | – | 1521 ± 1.2
308 K, x1 = 0.0109 | – | 1521.1 ± 1.2
308 K, x1 = 0.0129 | – | 1521.3 ± 1.2
308 K, x1 = 0.0145 | – | 1521.5 ± 1.2
308 K, x1 = 0.0163 | – | 1521.7 ± 1.2
308 K, x1 = 0.0181 | – | 1521.9 ± 1.2
308 K, x1 = 0.0208 | – | 1522.2 ± 1.2
308 K, x1 = 0.0234 | – | 1522.4 ± 1.2
308 K, x1 = 0.0248 | – | 1522.5 ± 1.2
308 K, x1 = 0.0273 | – | 1522.7 ± 1.2
308 K, x1 = 0.0286 | – | 1522.8 ± 1.2
308 K, x1 = 0.0302 | – | 1522.8 ± 1.2
308 K, x1 = 0.0319 | – | 1522.9 ± 1.2
308 K, x1 = 0.0341 | – | 1523 ± 1.2
308 K, x1 = 0.0384 | – | 1522.8 ± 1.2
308 K, x1 = 0.0407 | – | 1523 ± 1.2
308 K, x1 = 0.0428 | – | 1523 ± 1.2
313 K, x1 = 2.7e-05 | 992.261 ± 0.11 | –
313 K, x1 = 3e-05 | 992.046 ± 0.11 | –
313 K, x1 = 7.4e-05 | 992.253 ± 0.11 | –
313 K, x1 = 9.4e-05 | 992.137 ± 0.11 | –
313 K, x1 = 0.000109 | 992.207 ± 0.11 | –
313 K, x1 = 0.000129 | 992.221 ± 0.11 | –
313 K, x1 = 0.000145 | 992.226 ± 0.11 | –
313 K, x1 = 0.000163 | 992.224 ± 0.11 | –
313 K, x1 = 0.000181 | 992.217 ± 0.11 | –
313 K, x1 = 0.000208 | 992.206 ± 0.11 | –
313 K, x1 = 0.000234 | 992.203 ± 0.11 | –
313 K, x1 = 0.000248 | 992.194 ± 0.11 | –
313 K, x1 = 0.000273 | 992.178 ± 0.11 | –
313 K, x1 = 0.000286 | 992.177 ± 0.11 | –
313 K, x1 = 0.000302 | 992.159 ± 0.11 | –
313 K, x1 = 0.000319 | 992.158 ± 0.11 | –
313 K, x1 = 0.000341 | 992.147 ± 0.11 | –
313 K, x1 = 0.000384 | 992.121 ± 0.11 | –
313 K, x1 = 0.000407 | 992.068 ± 0.11 | –
313 K, x1 = 0.000428 | 992.103 ± 0.11 | –
313 K, x1 = 0.0027 | – | 1529.2 ± 1.2
313 K, x1 = 0.003 | – | 1529.2 ± 1.2
313 K, x1 = 0.0074 | – | 1529.7 ± 1.2
313 K, x1 = 0.0094 | – | 1530 ± 1.2
313 K, x1 = 0.0109 | – | 1530.1 ± 1.2
313 K, x1 = 0.0129 | – | 1530.3 ± 1.2
313 K, x1 = 0.0145 | – | 1530.4 ± 1.2
313 K, x1 = 0.0163 | – | 1530.6 ± 1.2
313 K, x1 = 0.0181 | – | 1530.8 ± 1.2
313 K, x1 = 0.0208 | – | 1531.1 ± 1.2
313 K, x1 = 0.0234 | – | 1531.3 ± 1.2
313 K, x1 = 0.0248 | – | 1531.4 ± 1.2
313 K, x1 = 0.0273 | – | 1531.5 ± 1.2
313 K, x1 = 0.0286 | – | 1531.6 ± 1.2
313 K, x1 = 0.0302 | – | 1531.6 ± 1.2
313 K, x1 = 0.0319 | – | 1531.7 ± 1.2
313 K, x1 = 0.0341 | – | 1531.8 ± 1.2
313 K, x1 = 0.0384 | – | 1531.6 ± 1.2
313 K, x1 = 0.0407 | – | 1531.8 ± 1.2
313 K, x1 = 0.0428 | – | 1531.8 ± 1.2
